Reference: ChEMBL document CHEMBL5137082, “Discovery of a Novel Vascular Disrupting Agent Inhibiting Tubulin Polymerization and HDACs with Potent Antitumor Effects” (J Med Chem, 2022)
Active and inactive are the calls of the source. No cut-off for these calls is given here.

Assays:
K562 = test: cells; type: functional, cell-based; settings: Homo sapiens, K562, 72 h
Description: Antiproliferative activity against human K562 cells assessed as inhibition of cell growth measured after 72 hrs by MTT assay

HepG2 = test: Antiproliferative activity against human HepG2 cells assessed as inhibition of cell growth measured after 72 hrs by MTT assay; type: functional, cell-based; settings: HepG2, 72 h
HCT-116 = test: Antiproliferative activity against human HCT-116 cells assessed as inhibition of cell growth measured after 72 hrs by MTT assay; type: functional, cell-based; settings: HCT-116, 72 h
MDA-MB-231 = test: Antiproliferative activity against human MDA-MB-231 cells assessed as inhibition of cell growth measured after 72 hrs by MTT assay; type: functional, cell-based; settings: MDA-MB-231, 72 h
H22 [1] = test: Antiproliferative activity against mouse H22 cells assessed as inhibition of cell growth measured after 72 hrs by MTT assay; type: functional, cell-based; settings: H22, 72 h
[2] = Antiproliferative activity against human HFL1 cells assessed as inhibition of cell growth measured after 72 hrs by MTT assay; type: toxicity, cell-based
MCF7 = test: Antiproliferative activity against human MCF7 cells assessed as inhibition of cell growth measured after 72 hrs by MTT assay; type: functional, cell-based; settings: MCF7, 72 h
H22 [3] = test: Antivascular activity against mouse H22 cells allografted in ICR mouse assessed as inhibition of blood vessel formation at 20 mg/kg, iv administered qd measured after 21 days by immunohistochemistry analysis; type: functional, organism-based; settings: time 21.0 day
H22 [4] = test: Antivascular activity against mouse H22 cells allografted in ICR mouse assessed as reduction in tumor microvessel density by measuring CD31-positive cells at 20 mg/kg, iv administered qd measured after 21 days by immunohistochemistry analysis; type: functional, organism-based; settings: time 21.0 day
H22 [5] = test: Antitumor activity against mouse H22 cells allografted in ICR mouse assessed as reduction in tumor weight at 20 mg/kg, iv administered qd measured after 21 days; type: functional; design: scale not given: the % may be the effect or the level left; settings: time 21 day
HUVEC = test: Antivascular activity against HUVEC cells assessed as inhibition of capillary-like tubule formation at 30 nM measured after 6 hrs by inverted microscopy; type: functional, cell-based; settings: Homo sapiens
[6] = target: T1, Protein deacetylase HDAC6 (Homo sapiens, UniProt Q9UBN7); test: Inhibition of HDAC6 in human HeLa cells using BOC-K(Ac)-AMC as substrate measured after 30 mins by fluorescence based microtiter plate reader assay; type: cell-based
T1 sequence (Q9UBN7 whole entry): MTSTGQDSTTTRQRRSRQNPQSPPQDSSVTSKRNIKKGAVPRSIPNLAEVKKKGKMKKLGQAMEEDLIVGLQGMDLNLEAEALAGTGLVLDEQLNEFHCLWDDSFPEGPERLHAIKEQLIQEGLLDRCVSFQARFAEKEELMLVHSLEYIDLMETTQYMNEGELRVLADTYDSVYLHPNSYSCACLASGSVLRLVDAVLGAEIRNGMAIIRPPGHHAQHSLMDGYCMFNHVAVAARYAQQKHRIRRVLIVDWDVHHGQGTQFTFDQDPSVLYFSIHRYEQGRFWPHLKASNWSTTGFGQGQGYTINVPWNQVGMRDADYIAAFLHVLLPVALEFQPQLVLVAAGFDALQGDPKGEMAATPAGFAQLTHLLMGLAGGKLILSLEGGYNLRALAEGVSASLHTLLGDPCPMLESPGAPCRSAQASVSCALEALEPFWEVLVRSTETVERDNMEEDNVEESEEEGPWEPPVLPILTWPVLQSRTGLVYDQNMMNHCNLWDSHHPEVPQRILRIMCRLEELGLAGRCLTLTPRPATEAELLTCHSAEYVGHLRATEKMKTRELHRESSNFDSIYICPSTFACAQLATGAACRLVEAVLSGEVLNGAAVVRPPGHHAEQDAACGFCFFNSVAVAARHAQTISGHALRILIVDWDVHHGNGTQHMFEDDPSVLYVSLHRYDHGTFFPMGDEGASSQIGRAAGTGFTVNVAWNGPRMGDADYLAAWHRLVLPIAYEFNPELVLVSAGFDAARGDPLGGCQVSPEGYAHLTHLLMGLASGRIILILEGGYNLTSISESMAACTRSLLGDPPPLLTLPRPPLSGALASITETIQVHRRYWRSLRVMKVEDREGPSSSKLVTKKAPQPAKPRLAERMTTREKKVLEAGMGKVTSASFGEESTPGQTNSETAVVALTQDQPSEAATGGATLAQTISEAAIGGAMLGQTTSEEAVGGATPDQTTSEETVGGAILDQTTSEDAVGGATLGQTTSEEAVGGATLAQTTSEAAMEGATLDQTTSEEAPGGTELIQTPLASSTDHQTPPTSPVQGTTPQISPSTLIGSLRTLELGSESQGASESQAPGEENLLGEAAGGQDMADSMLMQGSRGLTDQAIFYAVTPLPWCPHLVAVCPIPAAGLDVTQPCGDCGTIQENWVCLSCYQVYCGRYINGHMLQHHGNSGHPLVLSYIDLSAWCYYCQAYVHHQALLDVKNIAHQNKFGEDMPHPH

Histone deacetylase 8 = target: T2, Histone deacetylase 8 (Homo sapiens, UniProt Q9BY41); test: Inhibition of HDAC8 in human HeLa cells using BOC-K(Ac)-AMC as substrate measured after 30 mins by fluorescence based microtiter plate reader assay; type: cell-based
T2 sequence (Q9BY41 whole entry): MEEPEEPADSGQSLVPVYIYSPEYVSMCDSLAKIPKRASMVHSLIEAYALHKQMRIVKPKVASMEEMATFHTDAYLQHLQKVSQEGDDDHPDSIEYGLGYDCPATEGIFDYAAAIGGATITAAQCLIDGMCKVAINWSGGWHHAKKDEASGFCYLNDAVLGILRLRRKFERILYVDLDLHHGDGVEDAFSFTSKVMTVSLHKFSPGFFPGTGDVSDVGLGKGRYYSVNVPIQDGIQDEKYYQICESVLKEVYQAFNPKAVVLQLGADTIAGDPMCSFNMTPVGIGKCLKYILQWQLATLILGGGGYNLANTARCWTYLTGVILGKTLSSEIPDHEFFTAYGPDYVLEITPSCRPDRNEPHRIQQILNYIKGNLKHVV

Histone deacetylase 1 = Histone deacetylase 1 (Homo sapiens, UniProt Q13547); test: Inhibition of HDAC1 in human HeLa cells using BOC-K(Ac)-AMC as substrate measured after 30 mins by fluorescence based microtiter plate reader assay; type: cell-based
Histone deacetylase 3 = Histone deacetylase 3 (Homo sapiens, UniProt O15379); test: Inhibition of HDAC3 in human HeLa cells using BOC-K(Ac)-AMC as substrate measured after 30 mins by fluorescence based microtiter plate reader assay; type: cell-based
Histone deacetylase 2 = Histone deacetylase 2 (Homo sapiens, UniProt Q92769); test: Inhibition of HDAC2 in human HeLa cells using BOC-K(Ac)-AMC as substrate measured after 30 mins by fluorescence based microtiter plate reader assay; type: cell-based
H22 [7] = test: Antitumor activity against mouse H22 cells allografted in ICR mouse assessed as reduction in tumor weight at 25 mg/kg, ip administered qd measured after 21 days; type: functional; design: scale not given: the % may be the effect or the level left; settings: time 21 day

Histone deacetylase 3, sequence (O15379 whole entry): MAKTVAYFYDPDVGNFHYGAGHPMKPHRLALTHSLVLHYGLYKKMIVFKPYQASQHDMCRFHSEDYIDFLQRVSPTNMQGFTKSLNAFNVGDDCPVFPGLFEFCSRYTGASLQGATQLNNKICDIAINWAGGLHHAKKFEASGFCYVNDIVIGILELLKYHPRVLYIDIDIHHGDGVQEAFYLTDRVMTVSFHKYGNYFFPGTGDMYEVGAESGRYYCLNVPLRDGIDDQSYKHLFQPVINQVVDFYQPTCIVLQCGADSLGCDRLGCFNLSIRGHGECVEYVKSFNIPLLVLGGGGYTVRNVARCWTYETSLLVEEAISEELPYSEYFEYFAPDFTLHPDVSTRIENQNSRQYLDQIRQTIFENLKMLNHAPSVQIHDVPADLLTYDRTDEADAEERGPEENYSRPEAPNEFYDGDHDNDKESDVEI
Histone deacetylase 1, sequence (Q13547 whole entry): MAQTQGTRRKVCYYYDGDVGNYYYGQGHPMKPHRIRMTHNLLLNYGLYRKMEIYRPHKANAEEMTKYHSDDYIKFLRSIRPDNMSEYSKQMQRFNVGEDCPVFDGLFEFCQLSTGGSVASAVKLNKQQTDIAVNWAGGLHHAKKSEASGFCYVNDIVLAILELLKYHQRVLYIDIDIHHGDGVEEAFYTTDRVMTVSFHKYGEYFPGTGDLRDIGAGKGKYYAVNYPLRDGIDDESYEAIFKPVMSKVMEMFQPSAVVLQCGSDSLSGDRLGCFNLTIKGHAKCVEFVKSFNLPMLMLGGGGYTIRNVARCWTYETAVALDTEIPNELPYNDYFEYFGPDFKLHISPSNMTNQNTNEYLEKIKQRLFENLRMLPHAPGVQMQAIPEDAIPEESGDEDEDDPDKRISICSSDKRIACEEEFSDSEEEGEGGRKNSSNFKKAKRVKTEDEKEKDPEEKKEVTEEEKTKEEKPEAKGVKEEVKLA
Histone deacetylase 2, sequence (Q92769 whole entry): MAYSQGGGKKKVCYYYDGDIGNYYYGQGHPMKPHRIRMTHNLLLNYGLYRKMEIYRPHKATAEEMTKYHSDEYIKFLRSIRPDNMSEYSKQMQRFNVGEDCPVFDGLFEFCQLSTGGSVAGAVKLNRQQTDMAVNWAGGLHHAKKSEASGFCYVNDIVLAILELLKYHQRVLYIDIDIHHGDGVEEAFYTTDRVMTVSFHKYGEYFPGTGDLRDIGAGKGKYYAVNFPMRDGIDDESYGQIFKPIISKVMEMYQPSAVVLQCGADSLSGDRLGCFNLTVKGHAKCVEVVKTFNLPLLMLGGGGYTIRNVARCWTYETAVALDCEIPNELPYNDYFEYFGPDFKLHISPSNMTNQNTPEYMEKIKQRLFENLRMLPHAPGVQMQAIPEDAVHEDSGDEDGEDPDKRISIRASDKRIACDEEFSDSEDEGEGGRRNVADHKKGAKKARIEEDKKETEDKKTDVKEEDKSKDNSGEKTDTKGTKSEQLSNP

COc1ccc(CNC(=O)c2cc(F)ccc2N2CCOCC2)cc1C(=O)Nc1ccccc1N
IC50 (K562): > 2000 nM

COc1ccc(CNC(=O)c2cc(/C=C/C(=O)NO)ccc2N2CCOCC2)cc1O
IC50 (K562): > 2000 nM

COc1ccc(CNC(=O)c2cc(OCC(=O)NO)ccc2N2CCOCC2)cc1O
IC50 (K562): > 2000 nM

COc1cc(CNC(=O)c2cc(F)ccc2N2CCOCC2)ccc1/C=C/C(=O)NO
IC50 (K562): 1970 nM

O=C(/C=C/c1cc(CNC(=O)c2cc(F)ccc2N2CCOCC2)ccc1O)NO
IC50 (HepG2): 700 nM | IC50 (HCT-116): 823 nM | IC50 (MDA-MB-231): 642 nM | IC50 (H22 [1]): 733 nM | IC50 at 72 h [2]: 3260 nM | IC50 (K562): 285 nM | IC50 (MCF7): 775 nM

COc1cc(CCC(=O)NO)ccc1CNC(=O)c1cc(F)ccc1N1CCOCC1
IC50 (K562): > 2000 nM

COc1ccc(CNC(=O)c2cc(F)ccc2N2CCOCC2)cc1OCCCCCCC(=O)NO
IC50 (K562): 1500 nM

COc1ccc(CNC(=O)c2cc(F)ccc2N2CCOCC2)cc1C(=O)NO
IC50 (K562): 1030 nM

COc1ccc(CNC(=O)c2cc(C#CCCCCC(=O)NO)ccc2N2CCOCC2)cc1O
IC50 (K562): > 2000 nM

COc1ccc(CNC(=O)c2cc(F)ccc2N2CCOCC2)cc1O
IC50 (HepG2): 27 nM | IC50 (HCT-116): 29 nM | Activity (H22 [3]): Active | IC50 (MDA-MB-231): 26 nM | Activity (H22 [4]): Active | IC50 (H22 [1]): 29 nM | IC50 at 72 h [2]: 126 nM | IC50 (K562): 17 nM | Activity (H22 [5]): 74% | Activity (HUVEC): Active | IC50 (MCF7): 32 nM

COc1cc(/C=C/C(=O)NO)ccc1CNC(=O)c1cc(F)ccc1N1CCOCC1
IC50 (K562): 1660 nM

COc1ccc(CNC(=O)c2cc(OCCCC(=O)NO)ccc2N2CCOCC2)cc1O
IC50 (K562): > 2000 nM

COc1ccc(CNC(=O)c2cc(C(=O)NO)ccc2N2CCOCC2)cc1O
IC50 (K562): > 2000 nM

COc1ccc(CNC(=O)c2cc(OCCCCCCC(=O)NO)ccc2N2CCOCC2)cc1O
IC50 (K562): > 2000 nM

COc1ccc(CNC(=O)c2cc(F)ccc2N2CCOCC2)cc1C#CCCC(=O)NO
IC50 (K562): 354 nM

COc1ccc(CNC(=O)c2cc(C#CCCC(=O)NO)ccc2N2CCOCC2)cc1O
IC50 (K562): > 2000 nM

COc1ccc(CNC(=O)c2cc(C(=O)Nc3ccccc3N)ccc2N2CCOCC2)cc1O
IC50 (HepG2): 97 nM | IC50 (HCT-116): 77 nM | IC50 (MDA-MB-231): 101 nM | IC50 [6]: 668 nM | IC50 (Histone deacetylase 8): 2240 nM | IC50 (Histone deacetylase 1): 16500 nM | IC50 (H22 [1]): 96 nM | IC50 at 72 h [2]: 323 nM | IC50 (K562): 114 nM | IC50 (Histone deacetylase 3): 530 nM | IC50 (Histone deacetylase 2): 28000 nM | IC50 (MCF7): 105 nM

COc1ccc(CNC(=O)c2cc(F)ccc2N2CCOCC2)cc1OCC(=O)NO
IC50 (HepG2): 114 nM | IC50 (HCT-116): 105 nM | IC50 (MDA-MB-231): 104 nM | IC50 [6]: 2420 nM | IC50 (Histone deacetylase 8): 16500 nM | IC50 (Histone deacetylase 1): 8860 nM | IC50 (H22 [1]): 95 nM | IC50 at 72 h [2]: 495 nM | IC50 (K562): 61 nM | IC50 (Histone deacetylase 3): 3250 nM | IC50 (Histone deacetylase 2): 6720 nM | IC50 (MCF7): 124 nM

COc1ccc(CNC(=O)c2cc(F)ccc2N2CCOCC2)c(CCC(=O)NO)c1
IC50 (K562): 1060 nM

COc1cc(CNC(=O)c2cc(F)ccc2N2CCOCC2)ccc1CCC(=O)NO
IC50 (K562): > 2000 nM

O=C(/C=C/c1cccc(CNC(=O)c2cc(F)ccc2N2CCOCC2)c1)NO
IC50 (K562): 664 nM

COc1ccc(CNC(=O)c2cc(F)ccc2N2CCOCC2)cc1OCCCC(=O)NO
IC50 (K562): 1040 nM

COc1ccc(CNC(=O)c2cc(F)ccc2N2CCOCC2)cc1CCC(=O)NO
IC50 (K562): > 2000 nM

COc1ccc(CNC(=O)c2cc(F)ccc2N2CCOCC2)cc1C#CCCCCC(=O)NO
IC50 (K562): 921 nM

COc1ccc(CNC(=O)c2cc(F)ccc2N2CCOCC2)c(/C=C/C(=O)NO)c1
IC50 (K562): 2000 nM

O=C(CCCCCCC(=O)Nc1ccccc1)NO [VORINOSTAT]
Activity (H22 [7]): 61%
